Experimental data from ChEMBL document CHEMBL5528083, “Discovery of a Novel Thienopyrimidine Compound as a Urate Transporter 1 and Glucose Transporter 9 Dual Inhibitor with Improved Efficacy and Favorable Druggability” (J Med Chem, 2024).

Experiments:
Rattus norvegicus [1] = test: Potency index, ratio of compound to lesinurad for reduction in serum uric acid level in po dosed acute hyperuricemia state Sprague-Dawley rat model assessed as decrease ratio of SUA level; type: functional
[2] = Tmax in Sprague-Dawley rat at 2 mg/kg, iv measured upto 24 hrs by LC-MS/MS-AR analysis; type: ADME, organism-based; conditions: in vivo
[3] = Toxicity in Kunming female mouse assessed as renal injury at 100 mg/kg, po administered every other day for 14 days by H and E staining based assay; type: organism-based; conditions: in vivo, 336 h, time 14 day
[4] = biological target: T1, Solute carrier family 22 member 12 (Homo sapiens, UniProt Q96S37); test: Inhibition of human URAT1 expressed in HEK293T cells using 14C- uric acid assessed as uric acid absorption by measuring intracellular liquid radiation value by liquid scintillation counting analysis; type: cell-based
T1 sequence (Q96S37 whole entry): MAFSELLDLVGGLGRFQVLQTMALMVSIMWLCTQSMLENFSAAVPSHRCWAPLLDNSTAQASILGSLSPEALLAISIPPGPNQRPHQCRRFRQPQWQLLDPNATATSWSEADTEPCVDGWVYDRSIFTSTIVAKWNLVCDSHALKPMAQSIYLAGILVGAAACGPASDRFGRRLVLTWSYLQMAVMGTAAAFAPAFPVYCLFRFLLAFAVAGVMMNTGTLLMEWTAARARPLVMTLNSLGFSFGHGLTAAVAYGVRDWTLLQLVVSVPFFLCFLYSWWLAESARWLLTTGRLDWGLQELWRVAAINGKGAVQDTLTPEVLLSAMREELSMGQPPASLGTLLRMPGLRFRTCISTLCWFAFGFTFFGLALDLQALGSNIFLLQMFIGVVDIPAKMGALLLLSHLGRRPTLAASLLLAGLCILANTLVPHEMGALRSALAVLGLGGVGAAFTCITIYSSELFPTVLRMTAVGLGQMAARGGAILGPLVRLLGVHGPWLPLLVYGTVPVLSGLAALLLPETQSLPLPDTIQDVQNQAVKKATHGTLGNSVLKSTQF

[5] = AUC (0 to infinity) in Sprague-Dawley rat at 2 mg/kg, po measured upto 24 hrs by LC-MS/MS-AR analysis; type: ADME, organism-based; conditions: in vivo
[6] = biological target: T2, Solute carrier family 2, facilitated glucose transporter member 9 (Mus musculus, UniProt Q3T9X0); test: Inhibition of mouse EGFP-tagged GLUT9 expressed in HEK293T cells assessed as inhibition rate by measuring relative current by patch clamp electrophysiological analysis relative to control; type: cell-based
T2 sequence (Q3T9X0 whole entry): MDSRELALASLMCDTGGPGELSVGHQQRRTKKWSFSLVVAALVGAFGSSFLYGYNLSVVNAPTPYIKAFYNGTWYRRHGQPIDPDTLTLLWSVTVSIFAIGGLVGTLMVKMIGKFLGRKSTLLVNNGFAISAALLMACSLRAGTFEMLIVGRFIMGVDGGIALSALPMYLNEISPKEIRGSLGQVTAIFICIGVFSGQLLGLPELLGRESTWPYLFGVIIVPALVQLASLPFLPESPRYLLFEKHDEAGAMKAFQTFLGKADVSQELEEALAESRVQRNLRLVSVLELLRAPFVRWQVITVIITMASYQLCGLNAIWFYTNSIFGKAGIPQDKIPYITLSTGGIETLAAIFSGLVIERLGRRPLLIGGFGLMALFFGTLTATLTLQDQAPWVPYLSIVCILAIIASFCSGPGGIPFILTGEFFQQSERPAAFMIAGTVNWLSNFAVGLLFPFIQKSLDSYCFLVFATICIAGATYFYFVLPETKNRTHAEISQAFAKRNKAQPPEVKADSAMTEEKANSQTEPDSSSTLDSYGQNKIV

[7] = AUC (0 to t) in Sprague-Dawley rat at 2 mg/kg, po measured upto 24 hrs by LC-MS/MS-AR analysis; type: ADME, organism-based; conditions: in vivo
[8] = Toxicity in Kunming female mouse assessed as balloon like degeneration of liver at 100 mg/kg, po administered every other day for 14 days by H and E staining based assay; type: organism-based; conditions: in vivo, 336 h, time 14 day
[9] = Oral bioavailability in Sprague-Dawley rat at 2 mg/kg measured upto 24 hrs by LC-MS/MS-AR analysis; type: ADME, organism-based; conditions: in vivo
Mus musculus [10] = test: Reduction in serum uric acid level in acute hyperuricemia state Kunming mouse model assessed as SUA level at 0.5 mg/kg, po (reference value: 1037 +/- 106.59 uM); type: functional
[11] = MRT (0 to infinity) in Sprague-Dawley rat at 2 mg/kg, po measured upto 24 hrs by LC-MS/MS-AR analysis; type: ADME, organism-based; conditions: in vivo
[12] = Acute toxicity in Kunming mouse assessed as anorexia at 250 to 1000 mg/kg, po administered as single dose monitored for 7 days; type: organism-based; conditions: in vivo, 168 h, dose 250-1000 mg/kg, time 7 day
[13] = Subacute toxicity in Kunming male mouse assessed as change in body weight at 100 mg/kg, po administered every other day for 14 days; type: organism-based; conditions: in vivo, 336 h, time 14 day
Cytochrome P450 3A4 = Cytochrome P450 3A4 (Homo sapiens, UniProt P08684); test: Inhibition of CYP3A4 in human liver microsomes using midazolam measured after 40 mins incubation by LC-MS/MS analysis; type: ADME, Microsome
Cytochrome P450 2C9 = Cytochrome P450 2C9 (Homo sapiens, UniProt P11712); test: Inhibition of CYP2C9 in human liver microsomes measured after 40 mins incubation by LC-MS/MS analysis; type: ADME, Microsome
Cytochrome P450 2D6 = Cytochrome P450 2D6 (Homo sapiens, UniProt P10635); test: Inhibition of CYP2D6 in human liver microsomes measured after 40 mins incubation by LC-MS/MS analysis; type: ADME, Microsome
Mus musculus [14] = organism: Mus musculus; test: Reduction in serum uric acid level in chronic hyperuricemia state Kunming mouse model assessed as SUA level (reference value: 660.33 +/- 103.57 uM); type: functional
Rattus norvegicus [15] = test: Reduction in serum uric acid level in po dosed acute hyperuricemia state Sprague-Dawley rat model assessed as SUA level (reference value: 955.20 +/- 85.56 uM); type: functional
[16] = Subacute toxicity in Kunming mouse assessed as abnormal behavior at 100 mg/kg, po administered every other day for 14 days; type: organism-based; conditions: in vivo, 336 h, time 14 day
Mus musculus [17] = organism: Mus musculus; test: Reduction in serum uric acid level in acute hyperuricemia state Kunming mouse model assessed as SUA level by measuring decrease ratio relative to control; type: functional; parameters: concentration or dose not given beside the values
Cytochrome P450 2C19 = Cytochrome P450 2C19 (Homo sapiens, UniProt P33261); test: Inhibition of CYP2C19 in human liver microsomes measured after 40 mins incubation by LC-MS/MS analysis; type: ADME, Microsome
[18] = Acute toxicity in Kunming mouse assessed as fatality rate at 1000 mg/kg, po administered as single dose monitored for 7 days; type: organism-based; conditions: in vivo, po, 1000 mg/kg, 168 h, time 7 day
[19] = MRT (0 to infinity) in Sprague-Dawley rat at 2 mg/kg, iv measured upto 24 hrs by LC-MS/MS-AR analysis; type: ADME, organism-based; conditions: in vivo
[20] = Acute toxicity in Kunming mouse assessed as change in body weight at 250 to 1000 mg/kg, po administered as single dose monitored for 7 days; type: organism-based; conditions: in vivo, 168 h, dose 250-1000 mg/kg, time 7 day
[21] = Acute toxicity in Kunming mouse assessed as fatality rate at 500 mg/kg, po administered as single dose monitored for 7 days; type: organism-based; conditions: in vivo, po, 500 mg/kg, 168 h, time 7 day

Chain of Cytochrome P450 2D6 (P10635 whole entry): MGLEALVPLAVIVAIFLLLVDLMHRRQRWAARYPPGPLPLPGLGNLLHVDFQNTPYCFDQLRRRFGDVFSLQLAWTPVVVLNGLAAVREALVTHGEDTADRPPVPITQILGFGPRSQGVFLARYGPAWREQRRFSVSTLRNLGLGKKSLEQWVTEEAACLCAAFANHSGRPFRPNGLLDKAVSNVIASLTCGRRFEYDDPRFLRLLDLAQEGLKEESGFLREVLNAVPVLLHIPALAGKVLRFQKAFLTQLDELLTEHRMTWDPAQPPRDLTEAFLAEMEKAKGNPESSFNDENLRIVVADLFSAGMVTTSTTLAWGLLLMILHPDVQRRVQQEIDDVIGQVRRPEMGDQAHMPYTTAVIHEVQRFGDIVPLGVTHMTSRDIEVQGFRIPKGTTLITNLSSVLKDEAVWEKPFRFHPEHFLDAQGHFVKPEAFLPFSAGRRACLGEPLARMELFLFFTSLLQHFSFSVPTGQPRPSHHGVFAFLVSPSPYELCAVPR
Chain of Cytochrome P450 2C9 (P11712 whole entry): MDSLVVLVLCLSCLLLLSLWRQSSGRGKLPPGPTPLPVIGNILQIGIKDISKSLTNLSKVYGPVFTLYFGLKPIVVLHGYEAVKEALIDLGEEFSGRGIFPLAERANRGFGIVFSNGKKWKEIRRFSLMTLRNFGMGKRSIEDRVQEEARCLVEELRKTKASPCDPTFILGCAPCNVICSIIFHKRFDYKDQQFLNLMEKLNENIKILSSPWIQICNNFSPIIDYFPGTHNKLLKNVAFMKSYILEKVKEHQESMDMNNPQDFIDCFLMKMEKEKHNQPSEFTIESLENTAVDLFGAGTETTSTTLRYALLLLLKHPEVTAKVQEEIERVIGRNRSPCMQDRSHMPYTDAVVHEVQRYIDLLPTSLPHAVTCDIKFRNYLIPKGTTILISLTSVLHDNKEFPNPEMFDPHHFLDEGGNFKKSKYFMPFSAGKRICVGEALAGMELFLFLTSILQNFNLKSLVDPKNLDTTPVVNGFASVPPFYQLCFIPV
Chain of Cytochrome P450 3A4 (P08684 whole entry): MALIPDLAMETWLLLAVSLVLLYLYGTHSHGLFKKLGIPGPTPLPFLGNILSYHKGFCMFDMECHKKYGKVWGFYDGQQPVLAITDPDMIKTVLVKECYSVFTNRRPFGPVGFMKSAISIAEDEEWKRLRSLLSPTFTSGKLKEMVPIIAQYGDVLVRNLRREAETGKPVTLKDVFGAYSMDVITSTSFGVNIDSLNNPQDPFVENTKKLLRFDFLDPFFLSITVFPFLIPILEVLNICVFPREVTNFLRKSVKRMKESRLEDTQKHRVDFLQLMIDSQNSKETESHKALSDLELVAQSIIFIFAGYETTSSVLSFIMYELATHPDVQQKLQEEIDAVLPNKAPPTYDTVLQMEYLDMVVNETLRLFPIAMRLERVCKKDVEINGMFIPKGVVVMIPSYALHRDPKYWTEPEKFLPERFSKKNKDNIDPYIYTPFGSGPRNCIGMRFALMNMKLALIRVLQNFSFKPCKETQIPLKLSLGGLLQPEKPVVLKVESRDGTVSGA
Chain of Cytochrome P450 2C19 (P33261 whole entry): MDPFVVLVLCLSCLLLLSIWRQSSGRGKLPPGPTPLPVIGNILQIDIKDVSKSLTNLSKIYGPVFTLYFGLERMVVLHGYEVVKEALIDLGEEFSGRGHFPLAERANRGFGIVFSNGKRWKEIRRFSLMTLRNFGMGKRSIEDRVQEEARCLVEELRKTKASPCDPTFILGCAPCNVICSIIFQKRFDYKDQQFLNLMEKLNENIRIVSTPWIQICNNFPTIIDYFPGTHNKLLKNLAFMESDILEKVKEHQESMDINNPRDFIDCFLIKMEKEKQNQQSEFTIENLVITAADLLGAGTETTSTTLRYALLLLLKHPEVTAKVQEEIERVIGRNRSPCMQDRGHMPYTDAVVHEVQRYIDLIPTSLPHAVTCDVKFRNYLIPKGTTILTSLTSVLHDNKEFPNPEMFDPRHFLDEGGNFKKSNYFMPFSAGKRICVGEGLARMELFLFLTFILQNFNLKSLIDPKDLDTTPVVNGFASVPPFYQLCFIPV

For `O=C(O)CCCSc1nc(Nc2ccc(C3CC3)c3ccccc23)c2sccc2n1`, the Ratio (Rattus norvegicus [1]) was 1.8, the Tmax [2] was 4.98 min and the Activity [3] was “Toxic”. The IC50 [4] was 2.01 µM, the AUC [5] was 1929.1 ng·h/mL and the IC50 [6] was 18.2 µM. For the same molecule, the AUC(0-t) at 24 h [7] was 1810 ng·h/mL, the Activity [8] was “Non-Toxic” and the F [9] was 20.1%. For the same molecule, the Activity (Mus musculus [10]) was 418.6 µM, the MRT inf [11] was 150 min and the Activity [12] was “Non-Toxic”. For the same molecule, the Activity [13] was “Toxic”, the IC50 (Cytochrome P450 3A4) was over 20 µM and the IC50 (Cytochrome P450 2C9) was 2 µM. It also gave an IC50 (Cytochrome P450 2D6) of over 20 µM, an Activity (Mus musculus [14]) of 241 µM and an Activity (Rattus norvegicus [15]) of 190.8 µM. The Activity [16] was “Non-Toxic”, the Activity (Mus musculus [17]) was 93.2% and the IC50 (Cytochrome P450 2C19) was 5.93 µM. For the same molecule, the Activity [18] was “Non-Toxic”, the MRT inf [19] was 30 min and the Activity [20] was “Toxic”. For the same molecule, the Activity [21] was “Non-Toxic”.
